Here are results for 14 compounds from patent US20260347364A1, “PYRAZOLO[4,3-F]QUINAZOLINE DERIVATIVES AS MODULATORS OF G12D MUTANT KRAS USEFUL FOR THE TREATMENT OF CANCER” (JAZZ PHARMACEUTICALS IRELAND LTD., priority 2023, published 2026).

In one data set the target is T1, KRAS WT (Homo sapiens, UniProt P01116).
T1 construct: aa1-188 KRAS WT
The data set can be described thus: HTRF nucleotide exchange assay, KRAS WT. In kind it is biochemical. The conditions noted are these: HTRF nucleotide exchange assay (NEA), class symbols.

For the next data set, the target named is T2, KRAS G12D (Homo sapiens, UniProt P01116, G12D).
T2 construct: aa1-188 KRAS WT, HRAS WT, NRAS WT, or KRAS containing the G12D
Put plainly: HTRF nucleotide exchange assay, KRAS G12D. In kind it is biochemical. The conditions noted are these: HTRF nucleotide exchange assay (NEA), class symbols. Background: TR-FRET usually uses a lanthanide donor and a delayed reading to cut background.

For a further data set, the target named is T3, KRAS G12S (Homo sapiens, UniProt P01116, G12S).
T3 construct: 4 nM KRAS; aa1-188 containing the G12V, G12C, G12A or G12S amino acid substitution
The data set can be described thus: HTRF nucleotide exchange assay, KRAS G12S. In kind it is biochemical. The conditions noted are these: HTRF nucleotide exchange assay (NEA), class symbols. As for the experimental part:
(§1) HTRF Nucleotide Exchange Assay Method
(§2) The capacity of compounds to bind KRAS G12D, other KRAS mutants and wildtype RAS isoforms was quantified using a HTRF nucleotide exchange assay. Recombinant human RAS protein (2 nM; aa1-188 KRAS WT, HRAS WT, NRAS WT, or KRAS containing the G12D, G13D or Q61H amino acid substitutions, or 4 nM KRAS; aa1-188 containing the G12V, G12C, G12A or G12S amino acid substitution, an N-terminal 6× His-tag and leader sequence), and 2 nM Europium-labeled anti-6× His antibody were mixed in assay buffer (10 mM HEPES pH 7.3, 150 mM NaCl, 5 mM MgCl2, 0.05% BSA, 0.0025% NP-40 and 100 mM KF) with various concentrations of compound in a 384-well plate and a volume of 5 μL. After a 60-minute incubation at room temperature, 5 μl of 200 nM EDA-GTP-DY647P1 (diluted in assay buffer) was added to the plate. Following 30-minute incubation at room temperature, time-resolved fluorescence was measured on a PerkinElmer Envision plate reader. DMSO (0.3%) and unlabeled GDP (1 μM) or equivalent tool compound were used to generate the Max and Min assay signals, respectively. Data was analysed using a four-parameter logistic model to calculate IC50 values, with at least two independent replicates were performed for each compound. […]

For another data set, the target named is T4, KRAS G12A (Homo sapiens, UniProt P01116, G12A).
T4 construct: 4 nM KRAS; aa1-188 containing the G12V, G12C, G12A or G12S amino acid substitution
Put plainly: HTRF nucleotide exchange assay, KRAS G12A. In kind it is biochemical. The conditions noted are these: HTRF nucleotide exchange assay (NEA), class symbols. As for the experimental part:
as §1, §2

Data set [1] in a line: Metabolic stability in human liver hepatocytes (substrate depletion, intrinsic clearance). In kind it is in vitro ADME. The conditions noted are these: 37° C., Williams E Media, LC-MS/MS depletion. The source says:
Determining the in vitro metabolic stability of a new chemical entity (NCE) is a very useful tool within drug discovery. A metabolic stability study will determine the in vitro intrinsic clearance (CLint) of a compound. The CLint value represents a measure of enzyme activity toward an NCE and is independent of other physiological factors such as blood flow. Determination of CLint within drug discovery helps to identify metabolic liabilities within a compound series, and ultimately assist in the identification of compounds with improved metabolic stability. The CLint value determined in vitro can be used to predict in vivo clearance (using species specific scaling factors) in pre-clinical species and ultimately in human. The liver is the primary organ involved in drug metabolism, of which there are two pathways-Phase I and Phase II. Phase I metabolism is primarily oxidative with the majority of these oxidations catalysed by cytochrome P450 enzymes (CYPs) which are located in the smooth endoplasmic reticulum (ER) in the liver. Phase II metabolism is catalysed by various conjugative enzymes which are located mainly in the ER and the cytosol. The in vitro systems used to study drug metabolism are mainly subcellular fractions such as liver microsomes or whole cells (hepatocytes) isolated from the liver. Hepatocytes, being whole cells, contain both Phase I and Phase II metabolizing enzymes and produce their own cofactors. This assay determines the metabolic stability of test compounds in human liver hepatocytes using the substrate depletion approach. The lower limit of the assay is a T1/2 >462 min and a CLint […]. Therefore the upper limit of the assay is 277 μL/min/106 cells. Any CLint value higher than this should be given an out of range value. Hepatocytes were plated in Williams E Media with added L-glutamine, compounds were added as 1 mM DMSO solution and incubated at 37° C. Compound depletion was measured by LC-MS/MS at multiple time points following quenching with cold acetonitrile. CLint was calculated from the following equation:
CLint(μl/min/106cells)=(In(2)/T1/2)*1000/cell density(10^6cells/mL)

The target in a further data set is T5, KRAS G12V (Homo sapiens, UniProt P01116, G12V).
T5 construct: 4 nM KRAS; aa1-188 containing the G12V, G12C, G12A or G12S amino acid substitution
Put plainly: HTRF nucleotide exchange assay, KRAS G12V. In kind it is biochemical. The conditions noted are these: HTRF nucleotide exchange assay (NEA), class symbols. As for the experimental part:
as §1
The capacity of compounds to bind KRAS G12D, other KRAS mutants and wildtype RAS isoforms was quantified using a HTRF nucleotide exchange assay. Recombinant human RAS protein (2 nM; aa1-188 KRAS WT, HRAS WT, NRAS WT, or KRAS containing the G12D, G13D or Q61H amino acid substitutions, or 4 nM KRAS; aa1-188 containing the G12V, G12C, G12A or G12S amino acid substitution, an N-terminal 6× His-tag and leader sequence), and 2 nM Europium-labeled anti-6× His antibody were mixed in assay buffer (10 mM HEPES pH 7.3, 150 mM NaCl, 5 mM MgCl2, 0.05% BSA, 0.0025% NP-40 and 100 mM KF) with various concentrations of compound in a 384-well plate and a volume of 5 μL. After a 60-minute incubation at room temperature, 5 μl of 200 nM EDA-GTP-DY647P1 (diluted in assay buffer) was added to the plate. Following 30-minute incubation at room temperature, time-resolved fluorescence was measured on a PerkinElmer Envision plate reader. DMSO (0.3%) and unlabeled GDP (1 μM) or equivalent tool compound were used to generate the Max and Min assay signals, respectively. Data was analysed using a four-parameter logistic model to calculate IC50 values, with at least two independent replicates were performed for each compound. The results are presented as IC50s in Table 29 where “A” corresponds to an IC50 ≤10 nM, “B” to an IC50 >10 nM up to 100 nM, “C” is >100 nM up to 10 μM, “D” represents <49% inhibition at 10 μM and ND=not determined: […]

T2 sequence (P01116 1-188 isoform P01116-2 G12D): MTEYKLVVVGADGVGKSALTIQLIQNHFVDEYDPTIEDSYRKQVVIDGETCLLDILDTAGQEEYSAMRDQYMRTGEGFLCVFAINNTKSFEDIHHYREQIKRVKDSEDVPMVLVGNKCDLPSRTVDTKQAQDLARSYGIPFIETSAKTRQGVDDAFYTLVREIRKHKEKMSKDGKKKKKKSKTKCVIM
T1 sequence (P01116 1-188 isoform P01116-2): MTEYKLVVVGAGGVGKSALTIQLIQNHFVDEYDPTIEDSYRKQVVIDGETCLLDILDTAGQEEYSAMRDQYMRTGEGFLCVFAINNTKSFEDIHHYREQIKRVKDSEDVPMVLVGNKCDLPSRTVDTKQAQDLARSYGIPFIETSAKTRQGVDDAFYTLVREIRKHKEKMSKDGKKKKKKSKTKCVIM
T5 sequence (P01116 1-188 isoform P01116-2 G12V): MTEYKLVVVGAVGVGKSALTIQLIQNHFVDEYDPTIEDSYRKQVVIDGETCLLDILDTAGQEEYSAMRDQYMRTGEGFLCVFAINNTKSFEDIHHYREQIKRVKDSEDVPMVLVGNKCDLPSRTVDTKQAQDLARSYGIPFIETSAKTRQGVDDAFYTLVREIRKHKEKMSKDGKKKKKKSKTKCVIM
T3 sequence (P01116 1-188 isoform P01116-2 G12S): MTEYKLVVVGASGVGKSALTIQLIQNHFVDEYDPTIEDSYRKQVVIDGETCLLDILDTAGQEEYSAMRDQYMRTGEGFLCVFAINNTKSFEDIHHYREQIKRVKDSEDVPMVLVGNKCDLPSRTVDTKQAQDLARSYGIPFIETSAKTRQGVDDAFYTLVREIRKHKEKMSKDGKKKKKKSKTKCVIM
T4 sequence (P01116 1-188 isoform P01116-2 G12A): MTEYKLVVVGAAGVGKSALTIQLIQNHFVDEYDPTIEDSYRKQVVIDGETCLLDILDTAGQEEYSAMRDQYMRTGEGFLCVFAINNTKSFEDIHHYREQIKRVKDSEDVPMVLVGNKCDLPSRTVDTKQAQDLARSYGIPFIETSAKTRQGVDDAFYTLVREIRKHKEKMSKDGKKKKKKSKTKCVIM

Broadly, the IC50 is the concentration that inhibits the measured activity by half. Low values mean greater potency, high ones weaker potency. Broadly, the hepatocyte CLint is the rate of metabolic loss divided by the concentration. High values mean rapid turnover, low ones slow turnover. As for `CCc1c(F)ccc2cc(O)cc(-c3cc4nc(OC[C@@]56CCCN5C[C@H](F)C6)nc(N5CCCOCC5)c4c4cn(C)nc34)c12` [Example 1, 5-ethyl-6-fluoro-4-[2-methyl-9-(1,4-oxazepan-4-yl)-7-[[(2R,8S)-2-fluoro-1,2,3,5,6,7-hexahydropyrrolizin-8-yl]methoxy]pyrazolo[4,3-f]quinazolin-4-yl]naphthalen-2-ol], the IC50 against KRAS WT was not above 10 nM; at KRAS G12D it was not above 10 nM; at KRAS G12S it was 10 to 100 nM; against KRAS G12A, not above 10 nM; on KRAS G12V, 10 to 100 nM. In data set [1], this compound came in with an intrinsic clearance (hepatocyte CLint) of 73.3 µL/min/1e6 cells.

On to `C#Cc1c(F)ccc2cc(O)cc(-c3cc4nc(OC[C@@]56CCCN5C[C@H](F)C6)nc(N5CCCCCC5)c4c4cn(C)nc34)c12` [Example 12, 4-[9-(azepan-1-yl)-2-methyl-7-[[(2R,8S)-2-fluoro-1,2,3,5,6,7-hexahydropyrrolizin-8-yl]methoxy]pyrazolo[4,3-f]quinazolin-4-yl]-5-ethynyl-6-fluoro-naphthalen-2-ol], for which the half-inhibitory concentration (IC50) on KRAS WT and against KRAS G12D was 10 to 100 nM in each case. Further, the hepatocyte CLint in data set [1] worked out at 47.8 µL/min/1e6 cells.

For the compound `C#Cc1c(F)ccc2cc(O)cc(-c3ncc4c(N5CCCCCC5)nc(OC[C@@]56CCCN5C[C@H](F)C6)nc4c3F)c12` [WO2022248885 Example 84, reference compound], the hepatocyte CLint in data set [1] came out at 95.6 µL/min/1e6 cells.

For `C#Cc1c(F)ccc2cc(O)cc(-c3cc4nc(OC[C@@]56CCCN5C[C@H](F)C6)nc(N5CCCOCC5)c4c4cn(C)nc34)c12` [Example 2, 5-ethynyl-6-fluoro-4-[2-methyl-9-(1,4-oxazepan-4-yl)-7-[[(2R,8S)-2-fluoro-1,2,3,5,6,7-hexahydropyrrolizin-8-yl]methoxy]pyrazolo[4,3-f]quinazolin-4-yl]naphthalen-2-ol], the IC50 against KRAS WT and against KRAS G12D was not above 10 nM in each case. This compound displayed an intrinsic clearance (hepatocyte CLint) in data set [1] of 54.2 µL/min/1e6 cells.

As for `CCc1c(F)ccc2cc(O)cc(-c3cc4nc(OC[C@@]56CCCN5C[C@H](F)C6)nc(N5CCCCCC5)c4c4cn(C)nc34)c12` [Example 9, 4-[9-(azepan-1-yl)-2-methyl-7-[[(2R,8S)-2-fluoro-1,2,3,5,6,7-hexahydropyrrolizin-8-yl]methoxy]pyrazolo[4,3-f]quinazolin-4-yl]-5-ethyl-6-fluoro-naphthalen-2-ol], the IC50 against KRAS WT and on KRAS G12D was 100 to 10000 nM throughout. For the same compound, in data set [1], the intrinsic metabolic clearance (hepatocyte CLint) came out at 42.5 µL/min/1e6 cells.

With `CCc1c(F)ccc2cc(O)cc(-c3cc4nc(OC[C@@]56CCCN5C[C@H](F)C6)nc(N5CCCC(C)(O)C5)c4c4cn(C)nc34)c12` (mixture of isomers) [Example 7, 1-[4-(8-ethyl-7-fluoro-3-hydroxy-1-naphthyl)-2-methyl-7-[[rac-(2R,8S)-2-fluoro-1,2,3,5,6,7-hexahydropyrrolizin-8-yl]methoxy]pyrazolo[4,3-f]quinazolin-9-yl]-3-methyl-piperidin-3-ol], the 50% inhibitory concentration (IC50) on KRAS WT, at KRAS G12D and at KRAS G12V was not above 10 nM throughout.

Compound `C#Cc1c(F)ccc2cc(O)cc(-c3ccc4c(N5CCCOCC5)nc(OC[C@@]56CCCN5C[C@H](F)C6)nc4c3F)c12` [WO2022258974 Example 26, reference compound] had a hepatocyte CLint in data set [1] of 94.6 µL/min/1e6 cells.

For the compound `CCc1c(F)ccc2cc(O)cc(-c3cc4nc(OC[C@@]56CCCN5C[C@H](F)C6)nc(N5CC6CCC5CN6)c4c4cn(C)nc34)c12` (stereo partly drawn) [Example 14, 4-[9-(2,5-diazabicyclo[2.2.2]octan-2-yl)-2-methyl-7-[[(2R,8S)-2-fluoro-1,2,3,5,6,7-hexahydropyrrolizin-8-yl]methoxy]pyrazolo[4,3-f]quinazolin-4-yl]-5-ethyl-6-fluoro-naphthalen-2-ol], the IC50 was 100 to 10000 nM at KRAS WT, not above 10 nM against KRAS G12D and 10 to 100 nM at KRAS G12V.

In the case of `CCc1c(F)ccc2cc(O)cc(-c3c(F)c4nc(OC[C@@]56CCCN5C[C@H](F)C6)nc(N5CCOCC(C)(O)C5)c4c4cn(C)nc34)c12` (stereo partly drawn) [Example 92, 4-[4-(8-ethyl-7-fluoro-3-hydroxy-1-naphthyl)-5-fluoro-2-methyl-7-[[(2R,8S)-2-fluoro-1,2,3,5,6,7-hexahydropyrrolizin-8-yl]methoxy]pyrazolo[4,3-f]quinazolin-9-yl]-6-methyl-1,4-oxazepan-6-ol], the half-inhibitory concentration (IC50) on KRAS WT and against KRAS G12D was not above 10 nM throughout.

For `Cc1cc2[nH]ncc2c(-c2cc3nc(OC[C@@]45CCCN4C[C@H](F)C5)nc(N4CCCn5nc(C(=O)N(C)C)cc5C4)c3c3cn(C)nc23)c1C1CC1` [Example 74, 5-[4-(5-cyclopropyl-6-methyl-1H-indazol-4-yl)-2-methyl-7-[[(2R,8S)-2-fluoro-1,2,3,5,6,7-hexahydropyrrolizin-8-yl]methoxy]pyrazolo[4,3-f]quinazolin-9-yl]-N,N-dimethyl-4,6,7,8-tetrahydropyrazolo[1,5-a][1,4]diazepine-2-carboxamide], the IC50 on KRAS WT is 10 to 100 nM; against KRAS G12D, not above 10 nM.

Regarding `CCc1c(F)ccc2cc(O)cc(-c3c(C)c4nc(OC[C@@]56CCCN5C[C@H](F)C6)nc(N5CCOCC(C)(O)C5)c4c4cn(C)nc34)c12` (mixture of isomers) [Example 105, 4-[4-(8-ethyl-7-fluoro-3-hydroxy-1-naphthyl)-2,5-dimethyl-7-[rac-(2R)-2-fluoro-1,2,3,5,6,7-hexahydropyrrolizin-8-yl]methoxy]pyrazolo[4,3-f]quinazolin-9-yl]-6-methyl-1,4-oxazepan-6-ol], the half-inhibitory concentration (IC50) was not above 10 nM at KRAS WT; not above 10 nM on KRAS G12D; 10 to 100 nM on KRAS G12S; not above 10 nM on KRAS G12A; not above 10 nM at KRAS G12V.

For `CCc1c(F)ccc2cc(O)cc(-c3cc4nc(OC[C@@]56CCCN5C[C@H](F)C6)nc(N5CCCn6nc(C(=O)N(C)C)nc6C5)c4c4cn(C)nc34)c12` [Example 112, 8-[4-(8-ethyl-7-fluoro-3-hydroxy-1-naphthyl)-2-methyl-7-[[(2R,8S)-2-fluoro-1,2,3,5,6,7-hexahydropyrrolizin-8-yl]methoxy]pyrazolo[4,3-f]quinazolin-9-yl]-N,N-dimethyl-5,6,7,9-tetrahydro-[1,2,4]triazolo[1,5-a][1,4]diazepine-2-carboxamide], the IC50 against KRAS WT and at KRAS G12D was not above 10 nM throughout.

For the compound `CCc1c(F)ccc2cc(O)cc(-c3cc4nc(OC[C@@H]5CCN5C)nc(N5CCCn6nc(C(=O)N(C)C)cc6C5)c4c4cn(C)nc34)c12` [Example 70], the IC50 was 10 to 100 nM on KRAS WT and not above 10 nM on KRAS G12D.

In the case of `CCc1c(F)ccc2cc(O)cc(-c3c(C)c4nc(OCC56CCCN5CCC6)nc(N5CCC[C@@](C)(O)C5)c4c4cn(C)nc34)c12` [Example 205, (3R)-1-[4-(8-ethyl-7-fluoro-3-hydroxy-1-naphthyl)-7-(1,2,3,5,6,7-hexahydropyrrolizin-8-ylmethoxy)-2,5-dimethyl-pyrazolo[4,3-f]quinazolin-9-yl]-3-methyl-piperidin-3-ol], the half-inhibitory concentration (IC50) against KRAS WT and against KRAS G12D was not above 10 nM in each case.
